Results from patent US10011607B2, “Ethynyl derivatives” (Hoffmann-La Roche Inc., priority 2015, dated 2018).

Biological target: human mGlu4 receptor (Homo sapiens (Human), UniProt Q14833)
Assay: Ca2+ mobilization in vitro assay on recombinant human mGlu4 expressed in HEK293 cells (PAM)
Assay type: cell-based
Conditions: for Emax: HEK293, maximal response in % of maximal stimulatory effect of saturating L-AP4, read-out: Eff. (%); for EC50: HEK293 cells, human mGlu4, in presence of EC20 of L-AP4, read-out: EC50 (nM) mGlu4PAM
From the text: FIG. 1: Illustrates the experimental outline for mGlu4 PAM Ca^2+ mobilization screening assay and the determination of EC50 and % Emax values. […] A depression of the signal observed after addition of the EC20 concentration of L-AP4 was indicative of an inhibitory activity of the test compound.
Determination of EC50 Values Using a Ca2+ Mobilization In Vitro Assay on Recombinant Human mGlu4 Expressed in HEK293 Cells:
A monoclonal HEK-293 cell line stably transfected with a cDNA encoding for the human mGlu4 receptor was generated; for the work with mGlu4 Positive Allosteric Modulators (PAMs), a cell line with low receptor expression levels and low constitutive receptor activity was selected to allow the differentiation of agonistic versus PAM activity. Cells were cultured according to standard protocols (Freshney, 2000) in Dulbecco's Modified Eagle Medium with high glucose supplemented with 1 mM glutamine, 10% (vol/vol) heat-inactivated bovine calf serum, Penicillin/Streptomycin, 50 μg/ml hygromycin and 15 μg/ml blasticidin (all cell culture reagents and antibiotics from Invitrogen, Basel, Switzerland).
About 24 hrs before an experiment, 5×10^4 cells/well were seeded in poly-D-lysine coated, black/clear-bottomed 96-well plates. The cells were loaded with 2.5 μM Fluo-4AM in loading buffer (1×HBSS, 20 mM HEPES) for 1 hr at 37° C. and washed five times with loading buffer. The cells were transferred into a Functional Drug Screening System 7000 (Hamamatsu, Paris, France), and 11 half logarithmic serial dilutions of test compound at 37° C. were added and the cells were incubated for 10-30 min. with on-line recording of fluorescence. Following this pre-incubation step, the agonist (2S)-2-amino-4-phosphonobutanoic acid (L-AP4) was added to the cells at a concentration corresponding to EC20 with on-line recording of fluorescence; in order to account for day-to-day variations in the responsiveness of cells, the EC20 of L-AP4 was determined immediately ahead of each experiment by recording of a full dose-response curve of L-AP4.
Responses were measured as peak increase in fluorescence minus basal (i.e. fluorescence without addition of L-AP4), normalized to the maximal stimulatory effect obtained with saturating concentrations of L-AP4. Graphs were plotted with the % maximal stimulatory using XLfit, a curve fitting program that iteratively plots the data using Levenburg Marquardt algorithm. The single site competition analysis equation used was y=A+((B−A)/(1+((x/C)D))), where y is the % maximal stimulatory effect, A is the minimum y, B is the maximum y, C is the EC50, x is the log 10 of the concentration of the competing compound and D is the slope of the curve (the Hill Coefficient). From these curves the EC50 (drug concentration at which 50% of the maximal receptor activation was achieved), the Hill coefficient as well as the maximal response in % of the maximal stimulatory effect obtained with saturating concentrations of L-AP4 were calculated (see FIG. 1).

human mGlu4 receptor, sequence (Q14833 33-912): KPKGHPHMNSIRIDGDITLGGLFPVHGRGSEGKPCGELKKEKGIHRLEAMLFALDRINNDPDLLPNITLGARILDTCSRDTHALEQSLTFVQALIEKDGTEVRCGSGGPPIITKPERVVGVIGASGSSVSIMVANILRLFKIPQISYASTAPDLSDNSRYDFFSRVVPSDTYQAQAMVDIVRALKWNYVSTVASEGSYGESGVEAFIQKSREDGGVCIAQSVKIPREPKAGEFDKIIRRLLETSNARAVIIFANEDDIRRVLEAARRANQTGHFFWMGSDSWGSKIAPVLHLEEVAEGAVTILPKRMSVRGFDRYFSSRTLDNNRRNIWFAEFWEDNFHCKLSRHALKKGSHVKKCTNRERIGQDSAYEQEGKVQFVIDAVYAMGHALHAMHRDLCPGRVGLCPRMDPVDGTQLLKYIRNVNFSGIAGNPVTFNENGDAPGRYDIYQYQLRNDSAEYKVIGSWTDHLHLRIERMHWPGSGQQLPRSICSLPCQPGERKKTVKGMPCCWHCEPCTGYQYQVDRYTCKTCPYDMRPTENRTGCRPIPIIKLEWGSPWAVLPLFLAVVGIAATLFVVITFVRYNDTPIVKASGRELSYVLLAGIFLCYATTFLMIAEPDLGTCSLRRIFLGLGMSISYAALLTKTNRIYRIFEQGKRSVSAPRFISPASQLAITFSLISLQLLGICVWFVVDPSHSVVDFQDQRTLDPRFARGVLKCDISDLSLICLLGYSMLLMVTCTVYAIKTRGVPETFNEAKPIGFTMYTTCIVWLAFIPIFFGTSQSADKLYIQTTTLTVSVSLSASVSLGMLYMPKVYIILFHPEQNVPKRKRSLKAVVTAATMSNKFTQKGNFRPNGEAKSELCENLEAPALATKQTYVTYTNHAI

Question: `CC12CC(=O)N(c3c(F)cc(C#Cc4ccccc4)cc3F)C(=O)N1CCN(Cc1cccc(Cl)c1)C2=O` (racemic) [Example 88, (9aRS)-2-[(3-chlorophenyl)methyl]-7-[2,6-difluoro-4-(2-phenylethynyl)phenyl]-9a-methyl-4,9-dihydro-3H-pyrazino[1,2-c]pyrimidine-1,6,8-trione] was tested. Which Emax did it give?
Answer: Its Emax is 134%.

Question: What about the EC50 of the same compound?
Answer: Its EC50 is 73 nM.

Question: What does the source list for `CC12CC(=O)N(c3c(F)cc(C#Cc4ccccc4)cc3F)C(=O)N1CCN(c1cncnc1)C2=O` (racemic) [Example 28, (9aRS)-7-[2,6-difluoro-4-(2-phenylethynyl)phenyl]-9a-methyl-2-pyrimidin-5-yl-4,9-dihydro-3H-pyrazino[1,2-c]pyrimidine-1,6,8-trione]?
Answer: Emax: 120%; EC50: 145 nM

Question: For `Cc1cncc(N2CCN3C(=O)N(c4c(F)cc(C#Cc5ccccc5)cc4F)C(=O)C[C@@]3(C)C2=O)c1` [Example 15, (9aS)-7-[2,6-difluoro-4-(2-phenylethynyl)phenyl]-9a-methyl-2-(5-methyl-3-pyridyl)-4,9-dihydro-3H-pyrazino[1,2-c]pyrimidine-1,6,8-trione], which Emax is on record?
Answer: Its Emax is 90%.

Question: And the EC50?
Answer: The EC50 was 152 nM.

Question: With `C[C@@]12CC(=O)N(c3c(F)cc(C#Cc4ccccc4)cc3F)C(=O)N1CCN(c1ccnc(Cl)c1)C2=O` [Example 19, (9aS)-2-(2-chloro-4-pyridyl)-7-[2,6-difluoro-4-(2-phenylethynyl)phenyl]-9a-methyl-4,9-dihydro-3H-pyrazino[1,2-c]pyrimidine-1,6,8-trione] as the compound, how does the Emax read?
Answer: The Emax was 100%.

Question: What about the EC50 of the same compound?
Answer: The EC50 was 69 nM.

Question: For `Cn1cc(N2CCN3C(=O)N(c4c(F)cc(C#Cc5ccccc5)cc4Cl)C(=O)C[C@@]3(C)C2=O)cn1` [Example 78, (9aS)-7-[2-chloro-6-fluoro-4-(2-phenylethynyl)phenyl]-9a-methyl-2-(1-methylpyrazol-4-yl)-4,9-dihydro-3H-pyrazino[1,2-c]pyrimidine-1,6,8-trione], which Emax is on record?
Answer: Its Emax is 117%.

Question: And the EC50?
Answer: Its EC50 is 75 nM.

Question: Which results are given for `CC12CC(=O)N(c3c(F)cc(C#Cc4ccccc4)cc3F)C(=O)N1CCN(Cc1ccncc1)C2=O` (racemic) [Example 94, (9aRS)-7-[2,6-difluoro-4-(2-phenylethynyl)phenyl]-9a-methyl-2-(4-pyridylmethyl)-4,9-dihydro-3H-pyrazino[1,2-c]pyrimidine-1,6,8-trione]?
Answer: Emax: 84%; EC50: 127 nM

Question: What does the source list for `Cn1cc(N2CCN3C(=O)N(c4c(F)cc(C#Cc5ccccc5)cc4F)C(=O)C[C@@]3(C)C2=O)ccc1=O` [Example 24, (9aS)-7-[2,6-difluoro-4-(2-phenylethynyl)phenyl]-9a-methyl-2-(1-methyl-6-oxo-3-pyridyl)-4,9-dihydro-3H-pyrazino[1,2-c]pyrimidine-1,6,8-trione]?
Answer: Emax: 103%; EC50: 128 nM

Question: Which Emax does the source give for `COc1ncc(N2CCN3C(=O)N(c4c(F)cc(C#Cc5ccccc5)cc4F)C(=O)C[C@@]3(C)C2=O)cn1` [Example 37, (9aS)-7-[2,6-difluoro-4-(2-phenylethynyl)phenyl]-2-(2-methoxypyrimidin-5-yl)-9a-methyl-4,9-dihydro-3H-pyrazino[1,2-c]pyrimidine-1,6,8-trione] here?
Answer: Its Emax is 90%.

Question: What about the EC50 of the same compound?
Answer: The EC50 was 55 nM.

Question: With `CC12CC(=O)N(c3c(F)cc(C#Cc4ccccc4)cc3Cl)C(=O)N1CCN(c1ccccn1)C2=O` (racemic) [Example 76, (9aRS)-7-[2-chloro-6-fluoro-4-(2-phenylethynyl)phenyl]-9a-methyl-2-(2-pyridyl)-4,9-dihydro-3H-pyrazino[1,2-c]pyrimidine-1,6,8-trione] as the compound, how does the Emax read?
Answer: The Emax was 150%.

Question: And the EC50?
Answer: Its EC50 is 128 nM.

Question: Which Emax does the source give for `C[C@@]12CC(=O)N(c3c(F)cc(C#Cc4ccccc4)cc3F)C(=O)N1CCN(c1cnc(OC3CC3)nc1)C2=O` [Example 43, (9aS)-2-[2-(cyclopropoxy)pyrimidin-5-yl]-7-[2,6-difluoro-4-(2-phenylethynyl)phenyl]-9a-methyl-4,9-dihydro-3H-pyrazino[1,2-c]pyrimidine-1,6,8-trione] here?
Answer: Its Emax is 153%.

Question: And the EC50?
Answer: Its EC50 is 171 nM.

Question: With `Cc1nccn1CCN1CCN2C(=O)N(c3c(F)cc(C#Cc4ccccc4)cc3F)C(=O)C[C@@]2(C)C1=O` [Example 99, (9aS)-7-[2,6-difluoro-4-(2-phenylethynyl)phenyl]-9a-methyl-2-[2-(2-methylimidazol-1-yl)ethyl]-4,9-dihydro-3H-pyrazino[1,2-c]pyrimidine-1,6,8-trione] as the compound, how does the Emax read?
Answer: Its Emax is 146%.

Question: What about the EC50 of the same compound?
Answer: The EC50 was 282 nM.

Question: How did the Emax turn out when `Cc1nccc(N2CCN3C(=O)N(c4c(F)cc(C#Cc5ccccc5)cc4F)C(=O)CC3(C)C2=O)n1` (racemic) [Example 30, (9aRS)-7-[2,6-difluoro-4-(2-phenylethynyl)phenyl]-9a-methyl-2-(2-methylpyrimidin-4-yl)-4,9-dihydro-3H-pyrazino[1,2-c]pyrimidine-1,6,8-trione] was run?
Answer: The Emax was 101%.

Question: And the EC50?
Answer: Its EC50 is 113 nM.

Question: With `CC12CC(=O)N(c3c(F)cc(C#Cc4ccccc4)cc3F)C(=O)N1CCN(c1ccc(Cl)nc1)C2=O` (racemic) [Example 20, (9aRS)-2-(6-chloro-3-pyridyl)-7-[2,6-difluoro-4-(2-phenylethynyl)phenyl]-9a-methyl-4,9-dihydro-3H-pyrazino[1,2-c]pyrimidine-1,6,8-trione] as the compound, how does the Emax read?
Answer: The Emax was 101%.

Question: And the EC50?
Answer: The EC50 was 116 nM.

Question: Which Emax does the source give for `CC12CC(=O)N(c3c(F)cc(C#Cc4ccccc4)cc3Cl)C(=O)N1CCN(c1cccnc1)C2=O` (racemic) [Example 74, (9aRS)-7-[2-chloro-6-fluoro-4-(2-phenylethynyl)phenyl]-9a-methyl-2-(3-pyridyl)-4,9-dihydro-3H-pyrazino[1,2-c]pyrimidine-1,6,8-trione] here?
Answer: Its Emax is 120%.

Question: And the EC50?
Answer: The EC50 was 102 nM.

Question: `CC12CC(=O)N(c3c(F)cc(C#Cc4ccccc4)cc3F)C(=O)N1CCN(Cc1ccncn1)C2=O` (racemic) [Example 95, (9aRS)-7-[2,6-difluoro-4-(2-phenylethynyl)phenyl]-9a-methyl-2-(pyrimidin-4-ylmethyl)-4,9-dihydro-3H-pyrazino[1,2-c]pyrimidine-1,6,8-trione] was tested. Which Emax did it give?
Answer: Its Emax is 96%.

Question: And the EC50?
Answer: The EC50 was 142 nM.

Question: For `Cc1cccc(N2CCN3C(=O)N(c4c(F)cc(C#Cc5ccccc5)cc4F)C(=O)CC3(C)C2=O)n1` (racemic) [Example 10, (9aRS)-7-[2,6-difluoro-4-(2-phenylethynyl)phenyl]-9a-methyl-2-(6-methyl-2-pyridyl)-4,9-dihydro-3H-pyrazino[1,2-c]pyrimidine-1,6,8-trione], which Emax is on record?
Answer: The Emax was 127%.

Question: And the EC50?
Answer: Its EC50 is 163 nM.

Question: With `CC12CC(=O)N(c3c(F)cc(C#Cc4ccccc4)cc3F)C(=O)N1CCN(Cc1ccccc1Cl)C2=O` (racemic) [Example 87, (9aRS)-2-[(2-chlorophenyl)methyl]-7-[2,6-difluoro-4-(2-phenylethynyl)phenyl]-9a-methyl-4,9-dihydro-3H-pyrazino[1,2-c]pyrimidine-1,6,8-trione] as the compound, how does the Emax read?
Answer: Its Emax is 131%.

Question: What about the EC50 of the same compound?
Answer: The EC50 was 87 nM.

Question: With `CC12CC(=O)N(c3c(F)cc(C#Cc4ccccc4)cc3F)C(=O)N1CCN(c1ccncc1)C2=O` (racemic) [Example 8, (9aRS)-7-[2,6-difluoro-4-(2-phenylethynyl)phenyl]-9a-methyl-2-(4-pyridyl)-4,9-dihydro-3H-pyrazino[1,2-c]pyrimidine-1,6,8-trione] as the compound, how does the Emax read?
Answer: The Emax was 118%.

Question: What about the EC50 of the same compound?
Answer: Its EC50 is 129 nM.

Question: How did the Emax turn out when `Cn1cnc(N2CCN3C(=O)N(c4c(F)cc(C#Cc5ccccc5)cc4F)C(=O)C[C@@]3(C)C2=O)n1` [Example 73, (9aS)-7-[2,6-difluoro-4-(2-phenylethynyl)phenyl]-9a-methyl-2-(1-methyl-1,2,4-triazol-3-yl)-4,9-dihydro-3H-pyrazino[1,2-c]pyrimidine-1,6,8-trione] was run?
Answer: Its Emax is 138%.

Question: And the EC50?
Answer: The EC50 was 244 nM.
